Measurements: US20140045858A1, “COMPOUND P[…] ALZHEIMER'S DISEASE AND PREPARATION METHOD THEREOF” (priority 2011, published 2014)

Key:
[1] = system: rats' cholinergic and oxidative systems; test: Pharmacodynamic study, overall conclusions (rat amnesia model); format: in vivo; conditions: conclusion from Groups 3, 6 and 7, single-component patches
Text: Finally, the activities/contents of AChE, SOD, GSH-Px and MDA in Groups 3-5 approximate to those in the blank control group, that is to say, the levels of oxidase in rat's cholinergic and oxidative systems in the various delivery groups are close to normal level.

[2] = oral delivery; cited from earlier work

Row | Compound | anti-oxidation effect [1] | function of anti-cholinergic damage [1] | half life (t½) [2] [h]
1 | Cc1nc(C)c(C)nc1C.O=P(O)(O)O [tetramethylpyrazine phosphate] | very strong anti-oxidation effect | relatively poor function of anti-cholinergic damage | 2.89
2 | C/C=C1\[C@H]2C=C(C)C[C@]1(N)c1ccc(=O)[nH]c1C2 [huperzine A] | certain effect of anti-oxidation | certain function of anti-cholinergic damage | –
